Consider 20 compounds from PubChem BioAssay (NCI).

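A five-concentration, 48-hour dose response in 96-well plates underlies each endpoint, interpolated linearly between surrounding concentrations. Definition used: TGI = concentration required for complete inhibition of growth.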 A value given as a limit tells only on which side of the number the result lay.

Test in all cases: inhibition of tumour cell growth, NCI panel, 48 h
Experiment [1] relates to DU-145 prostate.
The test system of experiment [2] is LOX IMVI melanoma.
Experiment [3] concerns MOLT-4 leukemia.
Experiment [4] relates to A549 NSCLC.
The test system of experiment [5] is MDA-N.
The subject of experiment [6] is M14 melanoma.
Experiment [7] has as its system TK-10 renal.
Experiment [8] relates to HOP-92 NSCLC.
For experiment [9], the system named is ACHN renal.
The subject of experiment [10] is COLO 205 colon.
The test system of experiment [11] is HCT-15 colon.
Experiment [12] has as its system BT-549 breast.
The subject of experiment [13] is UACC-257 melanoma.
Experiment [14] relates to HOP-62 NSCLC.
Experiment [15] concerns SF-295 CNS.
Experiment [16] deals with HS 578T breast.

Regarding `CNc1nnc(CCCCCCCCc2nnc(NC)o2)o1`, the TGI was above 100 µM in experiment [1]; 38.5 µM in experiment [2]; above 100 µM in [3]; above 100 µM in experiment [4]; above 100 µM in [5]; above 100 µM in experiment [6]. In addition, the TGI in [7], in experiment [8], in experiment [9], in experiment [10], in experiment [11] and in experiment [12] was above 100 µM each time. Moreover, the TGI in experiment [13] was above 100 µM; in [14] it was 78 µM; in experiment [15], above 100 µM.
`Cc1cc2[nH]c3c(C#N)c(-c4ccccc4)c(N=Nc4ccc(F)cc4)c(=O)n3c2cc1C`: the TGI in experiment [2], in experiment [4], in experiment [5], in experiment [6], in experiment [7] and in experiment [9] was above 100 µM throughout. In addition, the TGI in [10], in experiment [11], in experiment [12], in experiment [13], in experiment [14] and in [15] was above 100 µM each time.
With `COc1ccc(-n2c(=O)c3[nH]c(=S)[nH]c3n(-c3ccc(OC)cc3)c2=S)cc1`, the TGI in [1], in [2], in experiment [3], in experiment [4], in experiment [6] and in experiment [7] was above 100 µM in each case. Also, the TGI in experiment [8], in experiment [9], in experiment [10], in experiment [11], in experiment [12] and in experiment [13] was above 100 µM each time. The TGI in experiment [14] and in experiment [15] was above 100 µM in each case.
As to `CC1=NN(c2cccc(Cl)c2)C2(C1=Cc1ccc(O)cc1)C(Cl)C(=O)N2c1nc2ccccc2s1` (stereo not drawn), the TGI in [1] is 67.9 µM; in experiment [2] it was 47.5 µM; in experiment [3], 44.2 µM; in experiment [5], 64.8 µM; in experiment [6] it was 58.7 µM; in experiment [7], above 100 µM. Moreover, the TGI in experiment [8] was 37.5 µM; in experiment [9] it was 52.7 µM; in [11] it was 32.1 µM; in [13], above 100 µM; in experiment [14] it was 51.8 µM; in experiment [15], 57 µM. Further, the TGI in [16] was above 100 µM.
For the compound `O=c1[nH]nc(-c2ccccc2)n1/N=C/c1ccc([N+](=O)[O-])o1`, the TGI in [1] is 17.5 µM; in experiment [2] it was above 100 µM; in experiment [3], above 47.1 µM; in experiment [4], 21.9 µM; in experiment [5], 12 µM; in [6], 11.2 µM. The TGI in experiment [7] was above 100 µM; in experiment [8], above 24.1 µM; in [9], 14.4 µM; in experiment [10], 8.47 µM; in experiment [11], 17.3 µM; in experiment [13], 11.9 µM. The TGI was 19.7 µM in experiment [14], above 55.1 µM in experiment [15] and above 100 µM in experiment [16].
In the case of `CCOC(=O)c1ccc(Nc2nc3ccccc3nc2-c2cccs2)cc1`, the TGI in experiment [1] was above 100 µM; in experiment [2] it was 74.1 µM; in experiment [3], above 100 µM; in [4] it was above 100 µM; in experiment [5], above 100 µM; in [7], 58.5 µM. Besides, the TGI in [9], in [10], in [11], in experiment [13], in experiment [14] and in [15] was above 100 µM each time. In addition, in [16], the TGI is above 100 µM.
Consider `O=C(O)CCC(=O)OCN1C(=O)C2C3C=CC(C2C1=O)C1C2C(=O)N(COC(=O)CCC(=O)O)C(=O)C2C31` (stereo not drawn), for which the TGI in experiment [2] was above 63 µM; in experiment [3], above 100 µM; in [4], above 100 µM; in [6] it was above 100 µM; in [7], above 100 µM; in experiment [8], above 100 µM. In addition, the TGI is above 100 µM in experiment [9]; above 100 µM in experiment [10]; above 57 µM in experiment [11]; above 100 µM in [13]; above 100 µM in [14]; above 100 µM in experiment [15].
As for `CCc1cccc2c3c([nH]c12)-c1ccccc1NC(=O)C3`, the TGI in experiment [1], in [2], in experiment [3], in [4], in experiment [6] and in [7] was above 100 µM throughout. Besides, the TGI in experiment [8], in experiment [10], in experiment [11], in experiment [12], in [13] and in experiment [14] was above 100 µM throughout. Moreover, the TGI in experiment [15] and in experiment [16] was above 100 µM in each case.
With `CN(Cc1cnc2nc(N)nc(N)c2n1)c1ccc(C(=O)NC23CC4CC(CC(C4)C2)C3)cc1`, the TGI in [1] turned out to be 38.1 µM; in experiment [2], 53 µM; in [3] it was 48.5 µM; in [6], 18.4 µM; in experiment [7], 30.8 µM; in experiment [9], 11.5 µM. Further, the TGI in experiment [10] was found to be 24 µM; in experiment [11] it was 16.6 µM; in experiment [12], 31.1 µM; in experiment [13], 25.6 µM; in experiment [14], 28.2 µM; in experiment [15], 21.1 µM. In addition, the TGI in experiment [16] is 31.9 µM.
Consider `O=C(COc1ccc(OCC(=O)N2C(=O)CC(=O)N(c3ccc(Cl)cc3)C2=S)cc1)N1C(=O)CC(=O)N(c2ccc(Cl)cc2)C1=S`, for which the TGI in experiment [1] is above 100 µM; in experiment [3], above 100 µM; in experiment [4], above 100 µM; in experiment [5] it was 97.2 µM; in experiment [6], above 100 µM; in experiment [7], above 100 µM. The TGI in experiment [8] is 70.4 µM; in experiment [9], above 100 µM; in experiment [10], 38.5 µM; in experiment [11] it was above 100 µM; in experiment [12] it was 87.8 µM; in experiment [13], above 100 µM. In experiment [15], this compound gave a TGI above 100 µM.
On to `COc1ccccc1OCC(COC(=O)Nc1ccccc1)OC(=O)Nc1ccccc1` (stereo not drawn), for which the TGI was above 100 µM in experiment [2]; above 100 µM in experiment [4]; above 100 µM in experiment [6]; above 100 µM in experiment [7]; 28.7 µM in experiment [8]; above 100 µM in experiment [9]. Moreover, the TGI in experiment [10], in experiment [11], in [13], in experiment [14] and in experiment [15] was above 100 µM in each case.
Consider `NCCCN(CCCCN(CCCN)C(=O)OCc1ccccc1)C(=O)OCc1ccccc1`, for which the TGI in experiment [1], in experiment [2], in experiment [3], in experiment [4], in [6] and in experiment [7] was above 100 µM in each case. The TGI in experiment [8], in experiment [9], in experiment [10], in experiment [11], in experiment [12] and in experiment [13] was above 100 µM each time. The TGI in experiment [14], in experiment [15] and in experiment [16] was above 100 µM throughout.
As to `Cc1cc(C)c2c(c1)CC1(Cc3cc(C)c(C)cc3C1=O)C2=O` (stereo not drawn), the TGI in experiment [1], in [2], in experiment [3], in experiment [4], in experiment [6] and in experiment [7] was above 100 µM throughout. For the same compound, the TGI in experiment [8], in [9], in [10], in experiment [11], in [12] and in [13] was above 100 µM each time. For the same compound, the TGI in experiment [15] and in [16] was above 100 µM in each case.
Consider `COC(=O)C1CC2(C)C=CC1N(C(=O)OCc1ccccc1)C2` (stereo not drawn), for which the TGI in [1], in experiment [2], in experiment [3], in [4], in experiment [6] and in experiment [7] was above 100 µM each time. Also, the TGI in [9], in experiment [10], in experiment [11], in [12], in [13] and in experiment [14] was above 100 µM each time. Moreover, the TGI in experiment [15] and in experiment [16] was above 100 µM each time.
Take `CC(C(=O)OCc1ccccc1)N(Cc1ccccc1)Cc1ccccc1` (stereo not drawn): the TGI in experiment [3], in [4], in experiment [6], in experiment [7], in experiment [8] and in experiment [9] was above 100 µM in each case. The TGI in [10], in [11], in experiment [13], in [14] and in experiment [15] was above 100 µM throughout.
For `O=C(NNC(=S)Nc1ccccc1)c1nsc2ccccc12`, the TGI is above 100 µM in experiment [2]; 98.5 µM in experiment [3]; above 100 µM in experiment [4]; 32.9 µM in experiment [6]; above 100 µM in experiment [7]; 90.5 µM in experiment [8]. Further, the TGI in experiment [9], in experiment [10], in experiment [11], in experiment [13] and in [14] was above 100 µM in each case.
Turning to `Cn1nc2ccc(Nc3cc(=O)[nH]c4ccc5nn(C)nc5c34)cc2n1`, the TGI in experiment [1], in [3], in experiment [4], in experiment [6], in experiment [7] and in [8] was above 100 µM throughout. In addition, the TGI in experiment [9], in [10], in experiment [11], in experiment [12], in experiment [13] and in experiment [14] was above 100 µM each time. In addition, the TGI in experiment [15] and in experiment [16] was above 100 µM each time.
On to `O=C(CCN1CCOCC1)/C(=C/c1ccccc1)c1ccccc1`, for which the TGI in experiment [2] stood at 7.42 µM; in experiment [3] it was 5.81 µM; in experiment [4], 36.6 µM; in [8], 13 µM; in experiment [10], 14.3 µM; in [11], 5.98 µM. Moreover, the figures for the TGI in experiment [13], in experiment [14] and in [15] were 9.72 µM, 45.8 µM and 25.7 µM, respectively.
Consider `COC(=O)[C@H](Cc1c[nH]c2ccccc12)NP(=O)(OCCC#N)OCC1OC(n2cc(C)c(=O)[nH]c2=O)CC1N=[N+]=[N-]` (stereo partly drawn), for which the TGI in [1], in [2], in experiment [3], in experiment [4], in experiment [5] and in experiment [6] was above 100 µM in each case. Also, the TGI in experiment [7], in experiment [8], in experiment [9], in [10], in experiment [11] and in experiment [12] was above 100 µM in each case. For the same compound, the TGI in [13], in experiment [14] and in [15] was above 100 µM in each case.
Consider `COC(C/C(=C/CO[Si](C(C)C)(C(C)C)C(C)C)C(=O)N(COCC[Si](C)(C)C)c1ccccc1I)OC`, for which the TGI was above 100 µM in experiment [1]; 37.8 µM in experiment [2]; above 100 µM in [3]; above 100 µM in experiment [4]; above 100 µM in experiment [5]; above 100 µM in experiment [6]. For the same compound, the TGI is above 100 µM in experiment [7]; above 100 µM in [8]; above 100 µM in experiment [9]; above 100 µM in experiment [10]; above 100 µM in experiment [11]; 69.9 µM in experiment [13]. Further, the TGI was above 100 µM in experiment [14], 17.4 µM in [15] and above 100 µM in [16].
